Our source for the TGI and GI50 values is PubChem BioAssay (NCI).

The structures appear in SMILES notation.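 Method: 48-hour compound exposure of cells in 96-well plates, five concentrations, linear interpolation of endpoints. Abbreviation: GI50, concentration required for 50% inhibition of growth. Definition used: TGI = concentration required for complete inhibition of growth.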

Test systems include HCT-15 colon; OVCAR-4 ovarian; RPMI-8226 leukemia; SK-MEL-5 melanoma; M14 melanoma; SNB-19 CNS; ACHN renal; COLO 205 colon; RXF 393 renal; NCI-H23 lung.
Common to all, as to test: NCI anticancer screen, dose series, 48 h

Consider `Clc1ccc2c(NC3CCC(N4CCCCC4)CC3)ccnc2c1` (centres undefined), for which the TGI in the experiment on HCT-15 colon was greater than 100 µM; in the experiment with OVCAR-4 ovarian, 78.6 µM; in the experiment with RPMI-8226 leukemia it was 84 µM; in the experiment with SK-MEL-5 melanoma it was 30.6 µM; with M14 melanoma it was 18.1 µM; in the experiment with SNB-19 CNS, greater than 100 µM. The TGI in the experiment with ACHN renal is greater than 100 µM; with COLO 205 colon it was 27.2 µM; in the experiment on RXF 393 renal, 43.7 µM; with NCI-H23 lung, greater than 100 µM.

For `N#C/C(=C\c1ccc[nH]1)c1cc(-c2ccc(Cl)cc2)nn1-c1ccccc1`, the GI50 in the experiment with HCT-15 colon was 5.37 µM; in the experiment with OVCAR-4 ovarian, 1.73 µM; in the experiment on RPMI-8226 leukemia it was 2.48 µM; with SK-MEL-5 melanoma, 6.47 µM; in the experiment with M14 melanoma, 4.09 µM; with SNB-19 CNS it was 9.35 µM. In addition, the GI50 was 5.55 µM with ACHN renal, 3.16 µM with COLO 205 colon, 6.89 µM in the experiment with RXF 393 renal and 4.19 µM with NCI-H23 lung. Moreover, the TGI in the experiment with HCT-15 colon is 25.1 µM; in the experiment with OVCAR-4 ovarian, greater than 56.3 µM; in the experiment with RPMI-8226 leukemia it was 9.77 µM; in the experiment on SK-MEL-5 melanoma it was 19.4 µM; with M14 melanoma, 14.8 µM; in the experiment with SNB-19 CNS, greater than 56.9 µM. The TGI in the experiment on ACHN renal came to 47.5 µM; with COLO 205 colon, 8.17 µM; in the experiment on RXF 393 renal it was 24.2 µM; in the experiment with NCI-H23 lung, 22.1 µM.

`OC(c1cc(C(F)(F)F)nc2c(Cl)cc(Cl)cc12)C1CCCCN1` (centres undefined): the TGI was 27.4 µM in the experiment with HCT-15 colon; 18.3 µM in the experiment on OVCAR-4 ovarian; 9.19 µM with RPMI-8226 leukemia; 22.6 µM in the experiment on SK-MEL-5 melanoma; greater than 44 µM in the experiment on M14 melanoma; greater than 52.3 µM in the experiment with SNB-19 CNS. The TGI was greater than 43.7 µM with ACHN renal, 9.29 µM in the experiment on COLO 205 colon, 18.8 µM with RXF 393 renal and 23.8 µM with NCI-H23 lung.

With `CN(C(=O)C(C)(C)C)c1ccccc1I(=O)=O`, the GI50 with HCT-15 colon was 84.3 µM; in the experiment on OVCAR-4 ovarian it was greater than 100 µM; in the experiment on RPMI-8226 leukemia it was 18.8 µM; with SK-MEL-5 melanoma it was 74.1 µM; in the experiment on SNB-19 CNS, greater than 100 µM; in the experiment with ACHN renal, greater than 100 µM. Besides, the GI50 with COLO 205 colon was 60.7 µM; in the experiment with RXF 393 renal, greater than 100 µM; with NCI-H23 lung it was greater than 100 µM. Further, the TGI was greater than 100 µM in the experiment on HCT-15 colon; greater than 100 µM in the experiment on OVCAR-4 ovarian; 66 µM with RPMI-8226 leukemia; greater than 100 µM in the experiment with SK-MEL-5 melanoma; greater than 100 µM in the experiment with SNB-19 CNS; greater than 100 µM in the experiment with ACHN renal. In addition, the TGI in the experiment with COLO 205 colon, with RXF 393 renal and in the experiment with NCI-H23 lung was greater than 100 µM in each case.

For the compound `Nc1nc2cc(Cl)ccc2n1N`, the TGI in the experiment on HCT-15 colon, in the experiment with RPMI-8226 leukemia, with SK-MEL-5 melanoma, in the experiment on M14 melanoma, in the experiment with SNB-19 CNS and in the experiment with ACHN renal was greater than 100 µM in each case. Also, the TGI with COLO 205 colon, in the experiment on RXF 393 renal and in the experiment on NCI-H23 lung was greater than 100 µM in each case.

For the compound `CCC(O)CCCCCCCCCCCCCCC(=O)O` (centres undefined), the TGI is greater than 100 µM in the experiment with OVCAR-4 ovarian; greater than 100 µM with RPMI-8226 leukemia; 40.6 µM in the experiment on SK-MEL-5 melanoma; greater than 100 µM in the experiment with M14 melanoma; greater than 100 µM in the experiment with SNB-19 CNS; greater than 100 µM in the experiment on ACHN renal. Besides, the TGI with COLO 205 colon, in the experiment on RXF 393 renal and in the experiment on NCI-H23 lung was greater than 100 µM in each case.

Regarding `COc1ccc(/C(=N/O)c2ccccc2C2=Nc3ccccc3C(NCc3ccccc3)O2)cc1C` (centres undefined), the TGI in the experiment on HCT-15 colon was greater than 100 µM; with RPMI-8226 leukemia, greater than 100 µM; in the experiment with SK-MEL-5 melanoma it was 32.8 µM; with M14 melanoma, greater than 100 µM; with SNB-19 CNS, greater than 100 µM; in the experiment on ACHN renal it was greater than 100 µM. The TGI with COLO 205 colon was 38.9 µM; in the experiment with RXF 393 renal it was greater than 100 µM; with NCI-H23 lung, greater than 100 µM.

For `O=C(Nc1ccc(Br)cc1)C(=O)C(C(=O)c1ccc(Cl)c(Cl)c1)C1OC(=O)c2ccccc21` (centres undefined), the TGI with HCT-15 colon was 53.7 µM; in the experiment on OVCAR-4 ovarian it was 50.5 µM; in the experiment with RPMI-8226 leukemia, greater than 100 µM; in the experiment with M14 melanoma, 31.9 µM; with SNB-19 CNS, 97.8 µM; in the experiment with ACHN renal, 35.5 µM. The TGI with COLO 205 colon was found to be 34.8 µM; in the experiment with RXF 393 renal it was 17.9 µM; in the experiment on NCI-H23 lung it was 29.3 µM.

Consider `[N-]=[N+]=C(C(=O)CN1CCCC1=O)S(=O)(=O)c1ccccc1`, for which the TGI in the experiment on HCT-15 colon, in the experiment on RPMI-8226 leukemia, in the experiment with SK-MEL-5 melanoma, with M14 melanoma, with SNB-19 CNS and with ACHN renal was greater than 100 µM each time. For the same compound, the TGI in the experiment on COLO 205 colon, with RXF 393 renal and in the experiment with NCI-H23 lung was greater than 100 µM each time.

As for `COc1nn(C)cc1Nc1nccc(-c2c[nH]c3c(NC(=O)[C@@H](C)N4CCN(C)CC4)cccc23)n1`, the GI50 with HCT-15 colon was 37.6 µM; in the experiment on OVCAR-4 ovarian, 47.9 µM; with RPMI-8226 leukemia it was 49.5 µM; with SK-MEL-5 melanoma, 18.5 µM; in the experiment on M14 melanoma, 18.9 µM; in the experiment on SNB-19 CNS, 75.6 µM. Further, the GI50 is 37.6 µM in the experiment with ACHN renal, 16.6 µM in the experiment on RXF 393 renal and 40.5 µM with NCI-H23 lung. The TGI with HCT-15 colon was greater than 100 µM; in the experiment on OVCAR-4 ovarian, greater than 100 µM; in the experiment with RPMI-8226 leukemia, greater than 100 µM; with SK-MEL-5 melanoma, 36.5 µM; with M14 melanoma it was 41.2 µM; in the experiment with SNB-19 CNS, greater than 100 µM. Further, the TGI in the experiment on ACHN renal is greater than 100 µM; in the experiment on RXF 393 renal, 42.2 µM; with NCI-H23 lung, greater than 100 µM.

As for `CC(=O)C1=C(C)N(Cc2ccccc2)C2(O)C=CC(=O)C3=C(O)c4ccccc4C(=O)C312` (centres undefined), the GI50 is 1.81 µM in the experiment with HCT-15 colon; 4.84 µM with OVCAR-4 ovarian; 2.35 µM in the experiment on RPMI-8226 leukemia; 3.63 µM in the experiment with SK-MEL-5 melanoma; 3.18 µM with M14 melanoma; 16 µM in the experiment on SNB-19 CNS. Besides, the GI50 in the experiment with COLO 205 colon is 2.38 µM; in the experiment with RXF 393 renal it was 3.27 µM; in the experiment with NCI-H23 lung it was 7.53 µM. Further, the TGI with HCT-15 colon came out at 4.51 µM; in the experiment on OVCAR-4 ovarian, 44.3 µM; with RPMI-8226 leukemia it was 6.38 µM; in the experiment with SK-MEL-5 melanoma, 12.5 µM; with M14 melanoma it was 9.03 µM; in the experiment with SNB-19 CNS, 44.1 µM. Also, the TGI turned out to be 5.04 µM with COLO 205 colon, 17.5 µM in the experiment with RXF 393 renal and 24.7 µM in the experiment on NCI-H23 lung.
